{
  "source": "patent US11697667B2",
  "about": "“Salts and polymorphs of cethromycin for the treatment of disease” (AliquantumRx, Inc., priority 2019, dated 2023)",
  "key": {"malaria": {"system": "malaria", "assay": "Mouse malaria blood stage high parasitemia parasite killing model", "assay_type": "in vivo, mice", "source_text": "Additionally or alternatively, mouse malaria blood stage activity may be tested in a high parasitemia parasite killing model (n=5 mice/dose) to assess rate of killing and minimal dose and duration for cure as disclosed above and/or according to methods known in the art. Quantifiable endpoints may include measured activity against malaria."}, "[1]": {"system": "malaria (infective sporozoites)", "assay": "Liver stage activity in murine malaria model", "assay_type": "in vivo, mice", "source_text": "Quantifiable endpoints may include measured activity against malaria."}},
  "data": [
    {"compound": "CCC1OC(=O)C(C)C(=O)C(C)C(OC2OC(C)CC(NC)C2O)C(C)(OCC=Cc2cnc3ccccc3c2)CC(C)C(=O)C(C)C2NC(=O)OC12C", "note": "(centres unmarked) [M1 metabolite, N-desmethyl cethromycin]", "values": [
      {"measurement": "Blood stage activity relative to the activity of cethromycin chloride", "setting": "malaria", "value": "less than 30%"},
      {"measurement": "Liver stage activity relative to the activity of cethromycin chloride", "setting": "[1]", "value": "less than 30%"}
    ]}
  ]
}
